Results from BindingDB's records for doi:10.1111/j.1471-4159.1990.tb04946.x (Schering-Plough Research Institute, 1990).

These molecules were tested against Hrh3 protein (Rattus norvegicus, UniProt Q5PPG3).
Chain of Hrh3 protein (Q5PPG3 whole entry): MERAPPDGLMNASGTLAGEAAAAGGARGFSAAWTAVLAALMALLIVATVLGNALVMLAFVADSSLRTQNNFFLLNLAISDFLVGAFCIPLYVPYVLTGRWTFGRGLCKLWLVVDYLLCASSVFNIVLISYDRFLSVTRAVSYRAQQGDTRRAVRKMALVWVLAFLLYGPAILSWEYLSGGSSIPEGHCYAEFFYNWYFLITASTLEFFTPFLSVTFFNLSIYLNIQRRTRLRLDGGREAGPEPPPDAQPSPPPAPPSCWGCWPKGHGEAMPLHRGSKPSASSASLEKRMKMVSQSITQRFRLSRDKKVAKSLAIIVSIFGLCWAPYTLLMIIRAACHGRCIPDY

SMILES | Ki [nM]
NCCc1c[nH]cn1 [[3H]histamine] | 11
C[C@@H](N)Cc1c[nH]cn1 | 1.2
CN/C(=N/CCSCc1nc[nH]c1C)NC#N | 8000
CNCCc1c[nH]cn1 [N(alpha)-Methylhistamine] | 0.45
S=C(NC1CCCCC1)N1CCC(c2cnc[nH]2)CC1 | 16
c1c[nH]cn1 | > 10000

The next lines start with the values.

Ki [nM] | SMILES
> 10000 | NC(Cc1c[nH]cn1)C(=O)O (centres undefined) [NSC_773]
> 10000 | COc1ccc(CN(CCN(C)C)c2ccccn2)cc1
> 10000 | CN/C([CH-][N+](=O)[O-])=[NH+]\CCSCc1ccc(CN(C)C)o1
> 10000 | C/N=C(\S)NCCSCc1[nH]cnc1C [CAS_34839-70-8]
440 | CN(C)CCCSC(=N)N [[3-(carbamimidoylsulfanyl)propyl]dimethylamine]
46 | Cc1[nH]cnc1CSCCNC(=N)NCCCc1c[nH]cn1 [2-[3-(1H-imidazol-5-yl)propyl]-1-(2-{[(5-methyl-1H-imidazol-4-yl)methyl]sulfanyl}ethyl)guanidine]
> 10000 | CN(C)CCC(c1ccc(Cl)cc1)c1ccccn1 (centres undefined) [clorfeniramina]
> 10000 | CNC(=NCCSCc1csc(N=C(N)N)n1)NC#N [[3H]tiotidine]
